Results published in US11358973B2, “Di(hetero)aryl macrocyclic compound for inhibiting protein kinase activity” (Shenzhen TargetRx, Inc., priority 2018, dated 2022).
Read-outs that look alike come from different tables or passages of the source.

How the values were obtained:
TRKA kinase = TRKA kinase (Homo sapiens, UniProt P04629); assay: Biochemical kinase analysis (HTRF), TRKA; conditions: 23° C., read-out: Kinase IC50 (nM) TRK A
Procedure: (§1) Inhibition of TRKA, TRKB, TRKC kinases can be measured by HTRF ([…]) method. The reaction was performed in a 384-well plate at 23° C. with a volume of 20 μL. TRKA TRKB or TRKC kinase were mixed with pre-formulated and diluted compounds of different concentrations for ten minutes in duplicate for each concentration, wherein 11 concentrations made with a 3-fold gradient dilution from the starting concentration of 300 nM were made and the final concentration of DMSO was 2%. The corresponding substrate and ATP were added thereto, and reacted at room temperature for 20 minutes (both a negative and a positive control were set: negative control is blank control, positive control is Entrectinib). After the reaction, detection reagent was added thereto (reagent in HTRF Kinase TK kit), and after incubation at room temperature for 30 minutes, detection was carried out by PerkinElmer Envision microplate reader for determining enzyme activity in the presence of the compounds of the present disclosure at various concentrations, and the inhibitory activity of different concentrations of compounds against enzyme activity was calculated. After that, in accordance with four-factors function and Graphpad 5.0 software, inhibitory activity on enzyme activity under different concentrations of compounds was fitted and IC50 values were calculated.

TRKB kinase = TRKB kinase (Homo sapiens, UniProt Q16620); assay: Biochemical kinase analysis (HTRF), TRKB; conditions: 23° C., read-out: Kinase IC50 (nM) TRK B
Sequence of TRKB kinase (Q16620 32-822): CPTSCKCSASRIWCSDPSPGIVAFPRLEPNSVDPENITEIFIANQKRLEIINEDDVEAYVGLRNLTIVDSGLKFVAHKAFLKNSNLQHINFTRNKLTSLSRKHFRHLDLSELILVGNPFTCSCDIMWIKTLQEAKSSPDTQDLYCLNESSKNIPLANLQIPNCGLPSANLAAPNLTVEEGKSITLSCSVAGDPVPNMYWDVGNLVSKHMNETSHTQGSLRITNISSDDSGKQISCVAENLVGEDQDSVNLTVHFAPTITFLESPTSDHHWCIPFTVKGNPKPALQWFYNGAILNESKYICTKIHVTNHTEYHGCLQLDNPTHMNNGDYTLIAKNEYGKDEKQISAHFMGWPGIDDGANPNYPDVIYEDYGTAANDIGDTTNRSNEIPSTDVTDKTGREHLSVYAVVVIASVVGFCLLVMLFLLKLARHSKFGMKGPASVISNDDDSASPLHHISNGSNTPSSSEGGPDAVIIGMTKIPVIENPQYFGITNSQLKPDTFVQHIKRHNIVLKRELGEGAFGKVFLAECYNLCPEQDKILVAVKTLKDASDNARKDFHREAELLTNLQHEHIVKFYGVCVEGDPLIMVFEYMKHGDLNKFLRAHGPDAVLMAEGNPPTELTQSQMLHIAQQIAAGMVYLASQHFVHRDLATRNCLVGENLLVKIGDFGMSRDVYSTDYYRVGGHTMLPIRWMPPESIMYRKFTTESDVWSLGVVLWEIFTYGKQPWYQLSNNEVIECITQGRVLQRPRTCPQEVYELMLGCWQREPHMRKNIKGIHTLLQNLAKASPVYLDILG
Procedure: as §1

TRKC kinase = TRKC kinase (Homo sapiens, UniProt Q16288); assay: Biochemical kinase analysis (HTRF), TRKC; conditions: 23° C., read-out: Kinase IC50 (nM) TRK C
Sequence of TRKC kinase (Q16288 32-839): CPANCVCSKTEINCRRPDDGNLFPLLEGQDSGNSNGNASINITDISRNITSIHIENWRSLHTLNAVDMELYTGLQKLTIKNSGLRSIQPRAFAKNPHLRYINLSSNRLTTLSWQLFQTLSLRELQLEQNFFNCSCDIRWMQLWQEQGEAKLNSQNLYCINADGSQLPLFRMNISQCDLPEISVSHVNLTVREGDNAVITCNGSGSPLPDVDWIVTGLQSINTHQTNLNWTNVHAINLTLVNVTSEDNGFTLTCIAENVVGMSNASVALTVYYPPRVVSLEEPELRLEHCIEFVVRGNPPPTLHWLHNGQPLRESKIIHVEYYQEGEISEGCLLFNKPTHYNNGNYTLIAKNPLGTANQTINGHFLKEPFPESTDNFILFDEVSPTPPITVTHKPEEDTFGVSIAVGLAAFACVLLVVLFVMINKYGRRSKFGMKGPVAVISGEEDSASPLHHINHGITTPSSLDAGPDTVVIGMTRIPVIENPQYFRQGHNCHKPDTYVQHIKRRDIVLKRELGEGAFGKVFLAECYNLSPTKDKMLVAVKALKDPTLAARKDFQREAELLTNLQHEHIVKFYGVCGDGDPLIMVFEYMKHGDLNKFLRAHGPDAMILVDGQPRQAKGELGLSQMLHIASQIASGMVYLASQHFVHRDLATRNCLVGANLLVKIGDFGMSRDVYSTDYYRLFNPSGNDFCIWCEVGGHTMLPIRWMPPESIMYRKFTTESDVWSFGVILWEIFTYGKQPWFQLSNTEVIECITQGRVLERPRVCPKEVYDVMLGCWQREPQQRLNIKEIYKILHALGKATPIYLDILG
Procedure: as §1

KM12 cell line = assay: KM12 cell proliferation analysis (CellTiter-Glo); assay type: cell-based; conditions: Homo sapiens, 72 h
Procedure: The CGT method was used to detect the in vitro anti-proliferative activity of the compounds of the present disclosure on tumor cells cultured in vitro. The KM12 cell line was maintained in RPMI-1640 medium containing 10% fetal bovine serum and antibiotics, the cells in the logarithmic growth phase were harvested and planted in a 96-well plate. The plate was incubated in an incubator at 37° C., containing 5% carbon dioxide gas overnight. After the test compounds were dissolved in DMSO, a 3-fold concentration gradient dilution with 9 compound concentrations was made. Pre-prepared compounds of different concentrations were transferred to the cell plate in triplicate for each concentration, and continue culturing for 72 h. The final concentration of DMSO in the system was 0.1%, and the initial concentration of the test compound was 300 nM.
CellTiter-Glo reagent was added to the cell plate, and incubated at room temperature for 30 minutes to stabilize the optical signal. Detection was carried out by PerkinElmer Envision microplate reader for determining the inhibitory activity of the compound of the present disclosure at various concentrations on cell proliferation. The inhibitory activity of compounds at different concentrations on cell proliferation was fitted according to Graphpad 5.0 software, and IC50 values were calculated.

[1] = Pharmacokinetic experiment in rats; assay type: in vivo, Sprague-Dawley rats; set-up: Cl_pred (L/kg): unit not given here; conditions: rat; for AUC(0-inf): read-out: AUCINF_pred; for MRT inf: read-out: MRTINF_pred
Procedure: 6 male Sprague-Dawley rats (7-8 weeks old, and weighing approximately 210 g) were divided into 2 groups with 3 rats in each group. The rats were intravenously or orally administered a single dose of compounds (3 mg/kg intravenously, 10 mg/kg orally) to compare pharmacokinetic differences.
The rats were feeded on standard food and water. Fasting was started 16 hours before the test. The drug was dissolved in PEG400 and dimethyl sulfoxide. The blood samples were collected from eyelids at the time points of 0.083 hour, 0.25 hour, 0.5 hour, 1 hour, 2 hours, 4 hours, 6 hours, 8 hours, 12 hours, and 24 hours after administration.
Rats were briefly anesthetized after inhalation of diethyl ether and 300 μL of blood sample was collected from the eyelids into test tubes. There was 30 μL of 1% heparin salt solution in the test tube. Tubes were dried at 60° C. overnight before use. After the blood sample was collected at the last time point, the rats were sacrificed after ether anesthesia.
Immediately after the collection of the blood sample, the test tube was gently inverted at least 5 times to ensure sufficient mixing and then placed on ice. The blood sample was centrifuged at 5000 rpm at 4° C. for 5 minutes to separate the plasma from the red blood cells. 100 μL of plasma was aspirated into a clean plastic centrifuge tube with a pipette, marking with the name of the compound and time point. Plasma was stored at −80° C. prior to analysis. The concentration of the compound of the present disclosure in plasma was determined by LC-MS/MS. The pharmacokinetic parameters were calculated based on the blood concentration of the drug for each animal at different time points.

[2] = male, Sprague-Dawley, plasma, IV 3 mg/kg
[3] = male, Sprague-Dawley, plasma, PO 10 mg/kg

Sequence of TRKA kinase (P04629 33-796): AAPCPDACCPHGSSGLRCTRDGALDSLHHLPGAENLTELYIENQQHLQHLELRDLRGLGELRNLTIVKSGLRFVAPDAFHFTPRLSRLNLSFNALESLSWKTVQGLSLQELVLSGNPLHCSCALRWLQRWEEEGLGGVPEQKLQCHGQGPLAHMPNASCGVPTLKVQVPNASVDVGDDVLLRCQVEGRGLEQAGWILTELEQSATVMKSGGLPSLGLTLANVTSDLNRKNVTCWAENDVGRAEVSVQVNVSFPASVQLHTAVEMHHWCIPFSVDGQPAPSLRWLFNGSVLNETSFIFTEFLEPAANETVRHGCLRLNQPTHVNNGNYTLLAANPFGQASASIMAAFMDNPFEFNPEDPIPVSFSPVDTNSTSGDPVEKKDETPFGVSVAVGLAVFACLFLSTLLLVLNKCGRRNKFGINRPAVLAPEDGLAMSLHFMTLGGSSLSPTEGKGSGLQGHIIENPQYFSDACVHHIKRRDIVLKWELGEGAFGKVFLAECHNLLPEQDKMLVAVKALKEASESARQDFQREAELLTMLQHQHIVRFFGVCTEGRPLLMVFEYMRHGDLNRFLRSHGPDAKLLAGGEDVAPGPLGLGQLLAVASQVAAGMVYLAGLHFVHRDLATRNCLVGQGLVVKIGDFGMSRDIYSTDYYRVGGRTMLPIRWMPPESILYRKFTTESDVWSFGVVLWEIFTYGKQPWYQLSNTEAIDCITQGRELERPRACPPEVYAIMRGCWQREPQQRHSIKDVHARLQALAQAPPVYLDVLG

C[C@H]1CC(=O)Nc2cnn3ccc(nc23)N[C@H](C)c2cc(F)ccc2O1 [Compound T-2-A, (7S,13R)-11-fluoro-7,13-dimethyl-6,7,13,14-tetrahydro-1,15-ethenopyrazolo[4,3-f][1,4,8,10]benzoxatriazacyclotiidecin-5(6H)-one]
IC50 (TRKA kinase): 0.19 nM
IC50 (TRKB kinase): 0.1 nM
IC50 (TRKC kinase): 0.06 nM
IC50 (KM12 cell line): 1.6 nM
AUC(0-t) [1, 2]: 6560 ng·h/mL
Cmax [1, 2]: 2100 ng/mL
Tmax [1, 2]: 0.08 h
half-life [1, 2]: 5.59 h
AUC(0-inf) [1, 2]: 6620 ng·h/mL
MRT inf [1, 2]: 3.44 h
AUC(0-t) [1, 3]: 11500 ng·h/mL
Cmax [1, 3]: 994 ng/mL
Tmax [1, 3]: 2.17 h
half-life [1, 3]: 4.84 h
bioavailability ([1]; male, Sprague-Dawley, plasma, PO 10 mg/kg vs IV 3 mg/kg): 52.7%
AUC(0-inf) [1, 3]: 12900 ng·h/mL
MRT inf [1, 3]: 7.37 h
Cl_pred (L/kg) ([1]; IV 3 mg/kg): 0.45
Vz_pred ([1]; IV 3 mg/kg): 2.67 L/kg
Cl_pred (L/kg) ([1]; PO 10 mg/kg): 0.83
Vz_pred ([1]; PO 10 mg/kg): 6.70 L/kg
